Patent publication US12371428B2 (Exelixis, Inc., priority 2019, dated 2025)
Counter-ions that a name gives are not always drawn. Like-named read-outs stand apart in the source and are kept apart here.

Key:
[1] = biological target: Human MER (residues 528-999) (Homo sapiens (Human), UniProt Q12866); experiment: Human Mer kinase assay, HTRF KinEase (Example C-2); type: biochemical
Procedure, shortened: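 IC50 values from 10 concentrations via 4-parameter logistic fit of […], with DMSO as 100% and 1 μM reference compound as 0% activity. Reaction: MER kinase domain 528-999, 1 ng/well, 40 μM ATP (Km), biotin peptide, 5 mM MgCl2, 1 mM DTT, 3% DMSO, room temperature 60 min; HTRF streptavidin-XL665/Eu-antibody detection.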

[2] = biological target: Human MET (residues 956-1390) (Homo sapiens (Human), UniProt P08581); experiment: Human Met kinase assay, HTRF KinEase (Example D-2); type: biochemical; conditions: read-out: c-Met IC50
Procedure, shortened: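 IC50 values come from a 4-parameter logistic fit of the […] fluorescence ratio, set between DMSO (100%) and reference compound at 1 μM (0%). Reactions held MET 956-1390 at 0.1 ng/well, ATP at Km, biotinylated peptide, 5 mM MgCl2, 1 mM MnCl2, 1 mM DTT and 3% DMSO, and ran 40 min at room temperature before streptavidin-XL665/Eu-antibody detection.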

[3] = biological target: Human KDR (residues 790-1356) (Homo sapiens (Human), UniProt P35968); experiment: Human KDR kinase assay, HTRF KinEase (Example B-2); type: biochemical
Procedure, shortened: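 Ten compound concentrations (3% DMSO final) were pre-plated, then KDR (790-1356) with biotinylated peptide in Mg/Mn/DTT buffer was added; ATP at Km (4.0 μM) started a 40 min room-temperature reaction. Detection used Eu-TK antibody and SA-XL665 in EDTA buffer; activity normalized to DMSO and reference inhibitor, IC50 by logistic fit.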

[4] = biological target: AXL (phospho-AXL, Gas6-stimulated A-172 glioblastoma cells) (Homo sapiens (Human), UniProt P30530); experiment: AXL autophosphorylation ELISA in A-172 cells (Example E); type: cell-based; conditions: cellular activity; AXL autophosphorylation ELISA in A-172 cells; read-out: Axl IC50
Procedure, shortened: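 Phospho-AXL was measured by ELISA in lysates of Gas6-stimulated A-172 cells, starved 24 h in serum-free medium and exposed 1 h to an 8-point compound dilution at 0.3% DMSO.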

[5] = protocol of Example C-2 (other compounds)
[6] = protocol of Example D-2 (other compounds)
[7] = protocol of Example B-2 (other compounds)

Human KDR (residues 790-1356), sequence (P35968 790-1356): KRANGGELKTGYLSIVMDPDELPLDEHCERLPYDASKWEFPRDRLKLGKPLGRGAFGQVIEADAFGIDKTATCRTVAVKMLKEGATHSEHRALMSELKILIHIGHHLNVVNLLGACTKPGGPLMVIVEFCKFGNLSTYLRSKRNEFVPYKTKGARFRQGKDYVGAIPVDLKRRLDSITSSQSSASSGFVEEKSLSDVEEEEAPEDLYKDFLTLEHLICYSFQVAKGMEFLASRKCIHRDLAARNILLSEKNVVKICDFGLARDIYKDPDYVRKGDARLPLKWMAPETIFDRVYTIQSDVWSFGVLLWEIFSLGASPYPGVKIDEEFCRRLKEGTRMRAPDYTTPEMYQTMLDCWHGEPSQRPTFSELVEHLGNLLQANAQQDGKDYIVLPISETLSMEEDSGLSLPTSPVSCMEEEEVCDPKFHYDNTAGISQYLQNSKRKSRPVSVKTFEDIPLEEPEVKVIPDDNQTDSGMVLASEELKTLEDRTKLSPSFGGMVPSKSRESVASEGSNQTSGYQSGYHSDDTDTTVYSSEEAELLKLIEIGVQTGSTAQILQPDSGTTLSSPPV
Human MET (residues 956-1390), sequence (P08581 956-1390): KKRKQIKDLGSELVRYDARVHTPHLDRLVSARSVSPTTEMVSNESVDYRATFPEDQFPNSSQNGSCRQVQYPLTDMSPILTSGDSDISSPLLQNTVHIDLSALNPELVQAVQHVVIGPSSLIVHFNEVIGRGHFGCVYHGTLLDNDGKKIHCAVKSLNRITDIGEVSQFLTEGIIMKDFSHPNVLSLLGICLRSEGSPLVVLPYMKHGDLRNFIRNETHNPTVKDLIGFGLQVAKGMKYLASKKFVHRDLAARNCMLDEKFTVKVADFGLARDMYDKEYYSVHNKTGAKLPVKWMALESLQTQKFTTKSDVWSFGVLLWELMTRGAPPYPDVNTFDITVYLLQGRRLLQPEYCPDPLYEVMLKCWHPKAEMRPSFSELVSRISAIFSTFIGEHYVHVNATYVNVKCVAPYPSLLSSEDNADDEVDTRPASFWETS
Human MER (residues 528-999), sequence (Q12866 528-999): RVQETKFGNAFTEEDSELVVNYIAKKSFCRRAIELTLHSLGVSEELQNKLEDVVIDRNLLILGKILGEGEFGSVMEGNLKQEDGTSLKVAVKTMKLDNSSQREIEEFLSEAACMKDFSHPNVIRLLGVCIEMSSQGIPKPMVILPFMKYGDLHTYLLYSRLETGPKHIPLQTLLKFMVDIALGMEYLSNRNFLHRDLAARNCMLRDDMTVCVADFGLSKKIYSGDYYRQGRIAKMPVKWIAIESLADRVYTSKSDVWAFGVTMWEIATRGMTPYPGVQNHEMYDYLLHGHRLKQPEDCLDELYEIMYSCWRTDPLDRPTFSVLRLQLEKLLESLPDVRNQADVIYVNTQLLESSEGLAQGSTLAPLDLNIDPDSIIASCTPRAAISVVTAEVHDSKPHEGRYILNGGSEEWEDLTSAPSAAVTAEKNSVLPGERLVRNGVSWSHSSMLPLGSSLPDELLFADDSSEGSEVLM
AXL (phospho-AXL, Gas6-stimulated A-172 glioblastoma cells), sequence (P30530 26-894): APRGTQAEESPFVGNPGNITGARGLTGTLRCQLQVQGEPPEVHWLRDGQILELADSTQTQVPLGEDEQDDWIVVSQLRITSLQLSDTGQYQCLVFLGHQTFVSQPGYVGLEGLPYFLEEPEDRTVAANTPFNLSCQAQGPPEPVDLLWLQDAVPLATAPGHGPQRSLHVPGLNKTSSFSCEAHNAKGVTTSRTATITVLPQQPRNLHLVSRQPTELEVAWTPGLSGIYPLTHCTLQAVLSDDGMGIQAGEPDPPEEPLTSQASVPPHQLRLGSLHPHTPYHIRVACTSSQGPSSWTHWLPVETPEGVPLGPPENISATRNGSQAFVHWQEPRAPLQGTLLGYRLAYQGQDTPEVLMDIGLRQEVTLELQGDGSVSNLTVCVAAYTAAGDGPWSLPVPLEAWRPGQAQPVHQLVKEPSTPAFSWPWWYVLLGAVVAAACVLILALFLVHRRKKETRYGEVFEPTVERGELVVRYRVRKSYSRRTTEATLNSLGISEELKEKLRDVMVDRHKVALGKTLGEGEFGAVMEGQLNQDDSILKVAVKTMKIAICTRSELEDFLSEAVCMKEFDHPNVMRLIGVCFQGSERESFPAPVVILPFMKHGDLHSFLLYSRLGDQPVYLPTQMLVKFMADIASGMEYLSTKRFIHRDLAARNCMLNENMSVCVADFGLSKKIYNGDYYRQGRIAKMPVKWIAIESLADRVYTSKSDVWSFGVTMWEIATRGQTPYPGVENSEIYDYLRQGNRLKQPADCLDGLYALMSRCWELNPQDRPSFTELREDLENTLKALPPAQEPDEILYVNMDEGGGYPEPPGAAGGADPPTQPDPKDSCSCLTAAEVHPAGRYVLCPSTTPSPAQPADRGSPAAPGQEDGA

SMILES	IC50 ([1]; protocol of Example C-2) [µM]	IC50 ([2]; protocol of Example D-2) [µM]	IC50 ([3]; protocol of Example B-2) [µM]	IC50 [4] [µM]	IC50 [1, 5] [µM]	IC50 [2, 6] [µM]	IC50 [3, 7] [µM]
CCn1cc(C(=O)Nc2ccc(Oc3ccnc4cc(OC)cnc34)c(F)c2)c(=O)c(-c2ccc(F)cc2)c1C [Compound 164, 1-Ethyl-N-[3-fluoro-4-[(7-methoxy-1,5-naphthyridin-4-yl)oxy]phenyl]-5-(4-fluorophenyl)-6-methyl-4-oxopyridine-3-carboxamide]	–	–	–	–	< 0.1	< 0.1	> 0.3
COc1cnc2c(Oc3ccc(NC(=O)c4cn(C(C)(C)C)c(C)c(-c5ccc(F)cc5)c4=O)cc3F)ccnc2c1 [Compound 166, 1-tert-Butyl-N-[3-fluoro-4-[(7-methoxy-1,5-naphthyridin-4-yl)oxy]phenyl]-5-(4-fluorophenyl)-6-methyl-4-oxopyridine-3-carboxamide]	–	–	–	–	< 0.1	< 0.1	> 0.3
COc1cnc2c(Oc3ccc(NC(=O)c4cn(C(C)C)cc(-c5ccc(F)cc5)c4=O)cc3F)ccnc2c1 [Compound 123, N-[3-Fluoro-4-[(7-methoxy-1,5-naphthyridin-4-yl)oxy]phenyl]-5-(4-fluorophenyl)-4-oxo-1-propan-2-ylpyridine-3-carboxamide]	–	–	–	–	< 0.1	< 0.1	> 0.3
COc1cc2nccc(Oc3ccc(NC(=O)c4cnc(C)c(-c5ccc(F)cc5)c4O)cc3)c2cc1OC [Compound 171, N-[4-(6,7-Dimethoxyquinolin-4-yl)oxyphenyl]-5-(4-fluorophenyl)-4-hydroxy-6-methylpyridine-3-carboxamide]	–	–	–	–	< 0.1	< 0.1	< 0.1
Cc1nc2c(Oc3ccc(NC(=O)c4cn(C(C)C)c(C)c(-c5ccc(F)cc5)c4=O)cc3F)ccnc2cc1Br [Compound 153, N-[4-[(7-Bromo-6-methyl-1,5-naphthyridin-4-yl)oxy]-3-fluorophenyl]-5-(4-fluorophenyl)-6-methyl-4-oxo-1-propan-2-ylpyridine-3-carboxamide]	–	–	–	–	< 0.1	< 0.1	> 0.3
COc1cnc2c(Oc3ccc(NC(=O)c4cn(C(C)C)c(C)c(-c5ccc(F)cc5)c4=O)cc3F)ccnc2c1 [Compound 121, N-[3-Fluoro-4-[(7-methoxy-1,5-naphthyridin-4-yl)oxy]phenyl]-5-(4-fluorophenyl)-6-methyl-4-oxo-1-propan-2-ylpyridine-3-carboxamide]	–	–	–	–	< 0.1	< 0.1	> 0.3
CCn1cc(C(=O)Nc2ccc(Oc3ccnc4cc(OC)cnc34)cc2)c(=O)c(-c2ccc(F)cc2)c1C [Compound 163, 1-Ethyl-5-(4-fluorophenyl)-N-[4-[(7-methoxy-1,5-naphthyridin-4-yl)oxy]phenyl]-6-methyl-4-oxopyridine-3-carboxamide]	–	–	–	–	< 0.1	< 0.1	> 0.3
COc1cnc2c(Oc3ccc(NC(=O)c4cn(C(C)C)c(C)c(-c5ccc(F)cc5)c4=O)cc3)ccnc2c1 [Compound 148, 5-(4-Fluorophenyl)-N-[4-[(7-methoxy-1,5-naphthyridin-4-yl)oxy]phenyl]-6-methyl-4-oxo-1-propan-2-ylpyridine-3-carboxamide]	–	–	–	–	< 0.1	< 0.1	> 0.3
COc1cnc2c(Oc3ccc(NC(=O)c4cn(C)c(C)c(-c5ccc(F)cc5)c4=O)cc3F)ccnc2c1 [Compound 156, N-[3-Fluoro-4-[(7-methoxy-1,5-naphthyridin-4-yl)oxy]phenyl]-5-(4-fluorophenyl)-1,6-dimethyl-4-oxopyridine-3-carboxamide]	–	–	–	–	< 0.1	< 0.1	> 0.3

Second part, the compound after the results:

IC50 ([1]; protocol of Example C-2) [µM]	IC50 ([2]; protocol of Example D-2) [µM]	IC50 ([3]; protocol of Example B-2) [µM]	IC50 [4] [µM]	IC50 [1, 5] [µM]	IC50 [2, 6] [µM]	IC50 [3, 7] [µM]	SMILES
< 0.1	< 0.1	< 0.1	< 0.1	–	–	–	Cc1ncc(C(=O)Nc2ccc(Oc3ccnc4cnccc34)c(F)c2)c(O)c1-c1ccc(F)cc1 [Compound 642, N-[3-fluoro-4-(1,7-naphthyridin-4-yloxy)phenyl]-5-(4-fluorophenyl)-4-hydroxy-6-methylpyridine-3-carboxamide]
< 0.1	< 0.1	< 0.1	–	–	–	–	Cc1ncc(C(=O)Nc2ccc(Oc3ccnc4cnccc34)cc2)c(O)c1-c1ccc(F)cc1 [Compound 643, 5-(4-fluorophenyl)-4-hydroxy-6-methyl-N-[4-(1,7-naphthyridin-4-yloxy)phenyl]pyridine-3-carboxamide]
< 0.1	< 0.1	> 0.3	–	–	–	–	Cc1nc2c(Oc3ccc(NC(=O)c4cn(C(C)C)c(C)c(-c5ccc(F)cc5)c4=O)cc3)ccnc2cc1-c1cnn(C(F)F)c1 [Compound 612, N-[4-[[7-[1-(Difluoromethyl)pyrazol-4-yl]-6-methyl-1,5-naphthyridin-4-yl]oxy]phenyl]-5-(4-fluorophenyl)-6-methyl-4-oxo-1-propan-2-ylpyridine-3-carboxamide hydrochloride]
< 0.1	< 0.1	> 0.3	–	–	–	–	COc1cnc2c(Oc3ccc(NC(=O)c4cn(C)c(C#N)c(-c5ccc(F)cc5)c4=O)cc3F)ccnc2c1 [Compound 586, 6-Cyano-N-[3-fluoro-4-[(7-methoxy-1,5-naphthyridin-4-yl)oxy]phenyl]-5-(4-fluorophenyl)-1-methyl-4-oxopyridine-3-carboxamide]
< 0.1	< 0.1	< 0.1	–	–	–	–	CNc1nc2c(Oc3ccc(NC(=O)c4cn(C(C)C)c(C)c(-c5ccc(F)cc5)c4=O)cc3F)ccnc2cc1OC [Compound 582, N-[3-Fluoro-4-[[7-methoxy-6-(methylamino)-1,5-naphthyridin-4-yl]oxy]phenyl]-5-(4-fluorophenyl)-6-methyl-4-oxo-1-propan-2-ylpyridine-3-carboxamide]
< 0.1	< 0.1	> 0.3	–	–	–	–	COc1cc2nccc(Oc3ccc(NC(=O)c4cn(C(C)C)c(C)c(-c5ccc(F)cc5)c4=O)cc3F)c2nc1O [Compound 580, N-[3-Fluoro-4-[(6-hydroxy-7-methoxy-1,5-naphthyridin-4-yl)oxy]phenyl]-5-(4-fluorophenyl)-6-methyl-4-oxo-1-propan-2-ylpyridine-3-carboxamide]
< 0.1	< 0.1	> 0.3	–	–	–	–	Cc1nc2c(Oc3ccc(NC(=O)c4cn(C(C)C)c(C)c(-c5ccc(F)cc5)c4=O)cc3)ccnc2cc1-c1cccnc1 [Compound 613, 5-(4-Fluorophenyl)-6-methyl-N-[4-[(6-methyl-7-pyridin-3-yl-1,5-naphthyridin-4-yl)oxy]phenyl]-4-oxo-1-propan-2-ylpyridine-3-carboxamide hydrochloride]
< 0.1	< 0.1	> 0.3	–	–	–	–	COc1cc2nccc(Oc3ccc(NC(=O)c4cn(CCO)c(C)c(-c5ccc(F)cc5)c4=O)cc3F)c2nc1OC [Compound 619, N-[4-[(6,7-Dimethoxy-1,5-naphthyridin-4-yl)oxy]-3-fluorophenyl]-5-(4-fluorophenyl)-1-(2-hydroxyethyl)-6-methyl-4-oxopyridine-3-carboxamide]
< 0.1	< 0.1	> 0.3	–	–	–	–	COc1cnc2c(Oc3ccc(NC(=O)c4cn(C)c(OC)c(-c5ccc(F)cc5)c4=O)cc3F)ccnc2c1 [Compound 587, N-[3-Fluoro-4-[(7-methoxy-1,5-naphthyridin-4-yl)oxy]phenyl]-5-(4-fluorophenyl)-6-methoxy-1-methyl-4-oxopyridine-3-carboxamide]
